ChEMBL document CHEMBL3102772, “New natural products as new leads for antibacterial drug discovery” (Bioorg Med Chem Lett, 2014)
Converted amounts (≈) assume the structure as drawn. One block for each molecule: values may come before it. Starred links: 1 amine or outer side, 2 acyl side, 3 side chain; linkers in the order of their positions; H or OH if unused. Positions of bridges follow the written chain, without caps; N, C: chain ends. Non-standard residues stand in square brackets, D forms with d. Residues, ends and D or L forms follow the SMILES beside them. X1 = CC(C)=CCc1ccc(Cl)c2[nH]cc(CC(N[*:1])C(=O)[*:2])c12; Trp(7-Cl) = N[CH](Cc1c[nH]c2c(Cl)cccc12)C(=O)O; Malonyl = O=C(CC(=O)[*:2])[*:1]; Cya = N[CH](CS(=O)(=O)O)C(=O)O; Dab = NCC[C@H](N)C(=O)O

Columns and labels:
Escherichia coli [1] = test: Antibacterial activity against Escherichia coli MB5746 harboring envA1/TolC efflux pump mutant assessed as growth inhibition after 20 hrs by agar dilution method; assay type: functional; conditions: MB5746, 20 h
Escherichia coli [2] = test: Antibacterial activity against Escherichia coli MB2884 assessed as growth inhibition after 20 hrs by agar dilution method; assay type: functional; conditions: MB2884, 20 h
Staphylococcus aureus [3] = test: Antibacterial activity against methicillin resistant Staphylococcus aureus COL MB5393 assessed as growth inhibition after 20 hrs by agar dilution method; assay type: functional; conditions: COL MB5393, 20 h
Staphylococcus aureus [4] = test: Antibacterial activity against methicillin sensitive Staphylococcus aureus MB2865 assessed as growth inhibition after 20 hrs by agar dilution method; assay type: functional; conditions: MB2865, 20 h
Staphylococcus aureus [5] = test: Antibacterial activity against 10 clinical isolates of methicillin resistant Staphylococcus aureus […] assessed as growth inhibition by broth dilution method; assay type: functional
Pseudomonas aeruginosa [6] = test: Antibacterial activity against Pseudomonas aeruginosa ATCC 27853 infected in sc dosed mouse septisemia model measured at 1 to 5 hrs; assay type: functional; conditions: ATCC 27853, sc
Pseudomonas aeruginosa [7] = test: Antibacterial activity against Pseudomonas aeruginosa ATCC 27853 assessed as growth inhibition by microdilution method; assay type: functional
Pseudomonas aeruginosa [8] = test: Antibacterial activity against Pseudomonas aeruginosa PA14 assessed as growth inhibition after 16 to 20 hrs by agar diffusion assay; assay type: functional, organism-based
Pseudomonas aeruginosa [9] = test: Bactericidal activity against Pseudomonas aeruginosa PA14 after 16 to 20 hrs by agar diffusion assay; assay type: functional
Escherichia coli [10] = test: Antibacterial activity against Escherichia coli NCTC 10418 assessed as growth inhibition; assay type: functional
Staphylococcus aureus [11] = test: Antibacterial activity against 24 clinical isolates of methicillin resistant Staphylococcus aureus […] assessed as growth inhibition by broth dilution method; assay type: functional
Escherichia coli [12] = test: Antibacterial activity against Escherichia coli PAS0232 harboring SPase P84S mutant assessed as growth inhibition after 24 hrs by micro-broth dilution method; assay type: functional; conditions: PAS0232, 24 h
[13] = Ratio of MIC for Staphylococcus epidermidis PAS9001 harboring SPase S92P mutant to MIC for wild type Staphylococcus epidermidis RP62A; assay type: functional
Staphylococcus aureus [14] = test: Antibacterial activity against Staphylococcus aureus PAS8001 harboring SPase P29S mutant assessed as growth inhibition after 24 hrs by micro-broth dilution method; assay type: functional; conditions: PAS8001, 24 h
Pseudomonas aeruginosa [15] = test: Antibacterial activity against Pseudomonas aeruginosa PAS2006 harboring SPase P84S mutant assessed as growth inhibition after 24 hrs by micro-broth dilution method; assay type: functional; conditions: PAS2006, 24 h
[16] = system: Staphylococcus epidermidis; test: Antibacterial activity against wild type Staphylococcus epidermidis RP62A assessed as growth inhibition after 24 hrs by micro-broth dilution method; assay type: functional
[17] = system: Staphylococcus epidermidis; test: Antibacterial activity against Staphylococcus epidermidis PAS9001 harboring SPase S92P mutant assessed as growth inhibition after 24 hrs by micro-broth dilution method; assay type: functional; conditions: PAS9001, 24 h
Escherichia coli [18] = test: Antibacterial activity against Escherichia coli SANK 70569 assessed as growth inhibition; assay type: functional
Bacillus subtilis = test: Antibacterial activity against Bacillus subtilis assessed as growth inhibition; assay type: functional
HepG2 = test: Cytotoxicity against human HepG2 cells; assay type: cell-based
Acinetobacter baumannii = test: Antibacterial activity against Acinetobacter baumannii clinical isolate assessed as growth inhibition; assay type: functional
Pseudomonas aeruginosa [19] = test: Antibacterial activity against Pseudomonas aeruginosa clinical isolate assessed as growth inhibition; assay type: functional
[20] = Cytotoxicity against human Fa2N-4 cells; assay type: cell-based
Escherichia coli [21] = test: Antibacterial activity against Escherichia coli clinical isolate assessed as growth inhibition; assay type: functional
Staphylococcus aureus [22] = test: Antibacterial activity against Staphylococcus aureus assessed as growth inhibition; assay type: functional
Klebsiella pneumoniae = test: Antibacterial activity against Klebsiella pneumoniae clinical isolate assessed as growth inhibition; assay type: functional

SMILES: C=C1CC[C@@H](O[C@H]2C[C@@](O)([C@H](C)NC(=O)c3[nH]c(C)c(Cl)c3Cl)[C@H](O)[C@@H](C)O2)[C@@H]2C=C[C@H](C)C(/C(O)=C3\C(=O)[C@H](C(C)C)N([C@H]4O[C@H](C)[C@H](OC(N)=O)[C@H](OC(C)=O)[C@@H]4OC)C3=O)[C@@H]12 (stereo partly drawn) [KIBDELOMYCIN]
MIC (Escherichia coli [1]): 32 µg/mL (≈ 34 µM) | MIC (Escherichia coli [2]): > 64 µg/mL | MIC (Staphylococcus aureus [3]): 0.5 µg/mL (≈ 0.532 µM) | MIC (Staphylococcus aureus [4]): 2 µg/mL (≈ 2.13 µM)

SMILES: CCCC(C)/C=C(/C)C(=O)OC(CCCCCCC/C=C/C(=O)NCCC(=O)NC(CS(=O)(=O)O)C(=O)N(C)C1C(=O)NC(C)C(=O)NC(C(=O)O)Cc2ccc(OS(=O)(=O)O)c(c2)-c2cc1cc(OS(=O)(=O)O)c2O[C@H]1O[C@H](C)[C@@H](O)[C@H](O)[C@@H]1O)CCC(C)C (stereo partly drawn)
MIC (Staphylococcus aureus [5]): 0.5 µg/mL (≈ 0.371 µM)

MIC (Pseudomonas aeruginosa [7]): 8 ng/mL
SMILES: CC[C@H](C)[C@@H]1NC(=O)[C@H](Cc2c[nH]c3ccccc23)NC(=O)[C@H]([C@@H](C)O)NC(=O)[C@@H]2CCCN2C(=O)[C@@H]2CCCN2C(=O)[C@H](CCN)NC(=O)[C@H](C)NC(=O)[C@H](CCN)NC(=O)[C@H](CCN)NC(=O)[C@H](Cc2c[nH]c3ccccc23)NC(=O)[C@H](CCN)NC(=O)[C@H](CCN)NC(=O)[C@H](CCCCN)NC(=O)[C@H](CCN)NC1=O (cyclo(A[Dab]PPTWI[Dab]K[Dab][Dab]W[Dab][Dab]))
ED50 (Pseudomonas aeruginosa [6]): 0.25 mg/kg

SMILES: CCCCCCC(CCCCCC(O)C(N)=O)OC(=O)C1CC=CN1C(=O)c1ccccc1O (stereo not drawn)
IC50 (Pseudomonas aeruginosa [8]): 0.16 µg/mL (≈ 0.337 µM) | MBC (Pseudomonas aeruginosa [9]): 100 µg/mL (≈ 211 µM)

MIC (Escherichia coli [10]): 3.12 µg/mL (≈ 4.98 µM)
SMILES: CCC[C@@H]1OC(=O)[C@@H](C)C[C@H](C)CCCCC(=O)CCC[C@@H](CC)CC/C=C(\COC)CC[C@@H](O)[C@@H](O)C[C@H](O)CNC1=O

SMILES: CC(C)=CCc1ccc(Cl)c2[nH]cc(CC3NC(=O)C(Cc4c[nH]c5c(Cl)cccc45)NC(=O)C4CCCN4C(=O)C(CS(=O)(=O)O)NC(=O)C(NC(=O)C(NC(=O)C(C)NC(=O)CC(=O)O)C(C)C)COC(=O)C(CO)NC(=O)C(CC(C)C)NC(=O)C(C(C)C)NC3=O)c12 (stereo not drawn) (Malonyl-AVS[Cya]P[Trp(7-Cl)][X1]VLS; ester 3-C; configuration not given here)
MIC (Staphylococcus aureus [11]): 16 µg/mL (≈ 11.4 µM)

SMILES: CCCCCCCCCCCCCCCC(=O)N(C)[C@H](CO)C(=O)N[C@H](C)C(=O)NCC(=O)N(C)[C@@H]1C(=O)N[C@@H](C)C(=O)N[C@H](C(=O)O)Cc2ccc(O)c(c2)-c2cc1ccc2O [ARYLOMYCIN C16]
MIC (Escherichia coli [12]): 4 µg/mL (≈ 4.54 µM) | Ratio [13]: 32 | MIC (Staphylococcus aureus [14]): 2 µg/mL (≈ 2.27 µM) | MIC (Pseudomonas aeruginosa [15]): 8 µg/mL (≈ 9.08 µM) | MIC [16]: 0.25 µg/mL (≈ 0.284 µM) | MIC [17]: 8 µg/mL (≈ 9.08 µM)

MIC (Escherichia coli [10]): 6.25 µg/mL (≈ 10 µM)
SMILES: CCC[C@@H]1OC(=O)[C@@H](C)C[C@H](C)CCCCC(=O)CCC[C@@H](CC)/C=C/C=C(\COC)CC[C@@H](O)[C@@H](O)C[C@H](O)CNC1=O

MIC (Escherichia coli [18]): 12.5 µg/mL (≈ 19.1 µM)
SMILES: CCCCCC[C@H]1OC(=O)CNC(=O)[C@H]([C@H](C)O)NC(=O)[C@H](CO)NC(=O)[C@H]([C@H](C)CC)NC(=O)[C@H](CC(C)C)N(C)C(=O)[C@@H]1C

MIC (Escherichia coli [18]): 1.56 µg/mL (≈ 2.19 µM)
SMILES: CCCCCCCCCC[C@H]1OC(=O)CNC(=O)[C@H]([C@H](C)O)NC(=O)[C@H](CO)NC(=O)[C@H]([C@H](C)CC)NC(=O)[C@H](CC(C)C)N(C)C(=O)[C@@H]1C

MIC (Bacillus subtilis): 70 µg/mL (≈ 130 µM)
SMILES: C/C(=C\c1ccc(N(C)C)cc1)C(=O)N[C@@H]1[C@H](O)[C@@H](O)[C@H]2OC(OC(C(=O)O)C(O)CO)O[C@H]2[C@@H]1N(C)C (stereo partly drawn)

MIC (Acinetobacter baumannii): 0.256 µg/mL (≈ 0.667 µM) | MIC (Pseudomonas aeruginosa [19]): 0.256 µg/mL (≈ 0.667 µM) | MIC (Escherichia coli [21]): 0.256 µg/mL (≈ 0.667 µM) | MIC (Staphylococcus aureus [22]): > 128 µg/mL | MIC (Klebsiella pneumoniae): 0.256 µg/mL (≈ 0.667 µM)
SMILES: [C-]#[N+]C(=C)[C@@](Cc1ccc(OC)cc1)([N+]#[C-])C1C[C@@H](OC(=O)CO)CC[C@@H]1O (stereo partly drawn)
Activity (HepG2): > 512 µg/mL | Activity [20]: > 512 µg/mL
